Measurements reported in the NIST ThermoML archive (doi:10.1016/j.jct.2017.05.001).

Experiment: wn = mass fraction of the nth substance listed
Settings: Liquid; for mass density: Vibrating tube method

CN(C)CCO [2-(N,N-dimethylamino)ethanol] + O
mass density [kg/m3]
Settings | w1 = 0.1005 | w1 = 0.202 | w1 = 0.3005 | w1 = 0.3995
333.15 K, 130000 kPa | – | 1018.6 | 1012.4 | 1005.5
333.15 K, 140000 kPa | 1028.8 | 1021.9 | 1015.4 | 1008.7
353.15 K, 100 kPa | 965.2 | 958.1 | 950.2 | 941.1
353.15 K, 500 kPa | 965.3 | 958.1 | 950.3 | 941.2
353.15 K, 1000 kPa | 965.6 | 958.4 | 950.6 | 941.4
353.15 K, 2000 kPa | 966 | 958.8 | 951 | 941.9
353.15 K, 5000 kPa | 967.3 | 960.1 | 952.4 | 943.3
353.15 K, 10000 kPa | 969.5 | 962.4 | 954.7 | 945.8
353.15 K, 15000 kPa | 971.6 | 964.5 | 956.9 | 948.1
353.15 K, 20000 kPa | 973.8 | 966.7 | 959.1 | 950.5
353.15 K, 30000 kPa | 978 | 971 | 963.4 | 954.9
353.15 K, 40000 kPa | 982 | 975 | 967.5 | 959.2
353.15 K, 50000 kPa | 986 | 978.9 | 971.6 | 963.3
353.15 K, 60000 kPa | 989.9 | 982.7 | 975.6 | 967.5
353.15 K, 70000 kPa | 993.6 | 986.6 | 979.3 | 971.2
353.15 K, 80000 kPa | 997.4 | 990.1 | 983 | 975.1
353.15 K, 90000 kPa | 1000.9 | 993.8 | 986.6 | 978.7
353.15 K, 100000 kPa | 1004.6 | 997.3 | 990.1 | 982.4
353.15 K, 110000 kPa | 1008.1 | 1000.7 | 993.6 | 985.9
353.15 K, 120000 kPa | 1011.7 | 1004.1 | 997 | 989.3
353.15 K, 130000 kPa | 1014.9 | 1007.5 | 1000.3 | 992.7
353.15 K, 140000 kPa | 1018.3 | 1010.8 | 1003.5 | 996
373.15 K, 100 kPa | 950.7 | 942.4 | 933.3 | 923.1
373.15 K, 500 kPa | 950.9 | 942.7 | 933.6 | 923.4
373.15 K, 1000 kPa | 951.2 | 942.9 | 933.9 | 923.6
373.15 K, 2000 kPa | 951.7 | 943.4 | 934.4 | 924.2
373.15 K, 5000 kPa | 953 | 944.8 | 935.9 | 925.8
373.15 K, 10000 kPa | 955.4 | 947.2 | 938.4 | 928.4
373.15 K, 15000 kPa | 957.7 | 949.5 | 940.8 | 931.1
373.15 K, 20000 kPa | 959.9 | 951.8 | 943.2 | 933.6
373.15 K, 30000 kPa | 964.4 | 956.3 | 947.9 | 938.5
373.15 K, 40000 kPa | 968.7 | 960.9 | 952.4 | 943.3
373.15 K, 50000 kPa | 972.8 | 964.9 | 956.6 | 947.6
373.15 K, 60000 kPa | 976.8 | 968.9 | 960.9 | 952.1
373.15 K, 70000 kPa | 980.9 | 973 | 965 | 956.2
373.15 K, 80000 kPa | 984.7 | 976.9 | 969.1 | 960.4
373.15 K, 90000 kPa | 988.6 | 980.6 | 972.8 | 964.3
373.15 K, 100000 kPa | 992.1 | 984.3 | 976.4 | 968.1
373.15 K, 110000 kPa | 995.9 | 988 | 980.3 | 971.9
373.15 K, 120000 kPa | 999.5 | 991.6 | 983.8 | 975.6
373.15 K, 130000 kPa | 1003 | 995 | 987.3 | 979.1
373.15 K, 140000 kPa | 1006.3 | 998.4 | 990.7 | 982.6
393.15 K, 100 kPa | 934.5 | 925.2 | 915 | 903.9
393.15 K, 500 kPa | 934.9 | 925.5 | 915.5 | 904.3
393.15 K, 1000 kPa | 935.1 | 925.7 | 915.7 | 904.6
393.15 K, 2000 kPa | 935.6 | 926.3 | 916.3 | 905.2
393.15 K, 5000 kPa | 937.1 | 927.9 | 917.9 | 907
393.15 K, 10000 kPa | 939.7 | 930.5 | 920.8 | 910
393.15 K, 15000 kPa | 942.1 | 933 | 923.4 | 912.8
393.15 K, 20000 kPa | 944.6 | 935.6 | 926.1 | 915.7
393.15 K, 30000 kPa | 949.3 | 940.5 | 931.2 | 921
393.15 K, 40000 kPa | 953.9 | 945.2 | 936.2 | 926.3
393.15 K, 50000 kPa | 958.2 | 949.6 | 940.8 | 931
393.15 K, 60000 kPa | 962.6 | 954.1 | 945.3 | 935.9
393.15 K, 70000 kPa | 966.9 | 958.5 | 949.8 | 940.5
393.15 K, 80000 kPa | 971 | 962.4 | 953.9 | 944.8
393.15 K, 90000 kPa | 975 | 966.6 | 958.1 | 949.2
393.15 K, 100000 kPa | 978.8 | 970.5 | 962.2 | 953.2
393.15 K, 110000 kPa | 982.7 | 974.3 | 966 | 957.3
393.15 K, 120000 kPa | 986.5 | 978.2 | 969.9 | 961.2
393.15 K, 130000 kPa | 990 | 981.7 | 973.5 | 964.9
393.15 K, 140000 kPa | 993.7 | 985.3 | 977.2 | 968.9

viscosity [mPa·s]
Settings | w1 = 0.1 | w1 = 0.1005 | w1 = 0.2 | w1 = 0.202 | w1 = 0.3 | w1 = 0.3005 | w1 = 0.3995 | w1 = 0.4
353.15 K, 100 kPa, Concentric cylinders viscometry | 0.475 | – | 0.618 | – | 0.809 | – | – | 1.044
353.15 K, 100 kPa, Falling or rolling sphere viscometry | – | 0.4624 | – | 0.6055 | – | 0.8063 | 1.05 | –
353.15 K, 5000 kPa, Falling or rolling sphere viscometry | – | 0.4644 | – | 0.6064 | – | 0.812 | 1.059 | –
353.15 K, 10000 kPa, Falling or rolling sphere viscometry | – | 0.4671 | – | 0.6135 | – | 0.8213 | 1.074 | –
353.15 K, 15000 kPa, Falling or rolling sphere viscometry | – | 0.4699 | – | 0.6195 | – | 0.8321 | 1.09 | –
353.15 K, 20000 kPa, Falling or rolling sphere viscometry | – | 0.472 | – | 0.6229 | – | 0.8407 | 1.105 | –
353.15 K, 25000 kPa, Falling or rolling sphere viscometry | – | 0.4744 | – | 0.6275 | – | 0.8485 | 1.118 | –
353.15 K, 30000 kPa, Falling or rolling sphere viscometry | – | 0.4772 | – | 0.6338 | – | 0.856 | 1.135 | –
353.15 K, 40000 kPa, Falling or rolling sphere viscometry | – | 0.4824 | – | 0.6411 | – | 0.875 | 1.167 | –
353.15 K, 60000 kPa, Falling or rolling sphere viscometry | – | 0.491 | – | 0.659 | – | 0.9078 | 1.225 | –
353.15 K, 80000 kPa, Falling or rolling sphere viscometry | – | 0.4999 | – | 0.6779 | – | 0.9395 | 1.281 | –
353.15 K, 100000 kPa, Falling or rolling sphere viscometry | – | 0.5096 | – | 0.6942 | – | 0.9726 | 1.337 | –
373.15 K, 5000 kPa, Falling or rolling sphere viscometry | – | 0.359 | – | 0.4516 | – | 0.5788 | 0.7177 | –
373.15 K, 10000 kPa, Falling or rolling sphere viscometry | – | 0.3614 | – | 0.4543 | – | 0.5834 | 0.7267 | –
373.15 K, 15000 kPa, Falling or rolling sphere viscometry | – | 0.3638 | – | 0.4578 | – | 0.5895 | 0.7398 | –
373.15 K, 20000 kPa, Falling or rolling sphere viscometry | – | 0.3659 | – | 0.4624 | – | 0.5971 | 0.7525 | –
373.15 K, 25000 kPa, Falling or rolling sphere viscometry | – | 0.3691 | – | 0.4659 | – | 0.602 | 0.7633 | –
373.15 K, 30000 kPa, Falling or rolling sphere viscometry | – | 0.3711 | – | 0.4702 | – | 0.6099 | 0.7742 | –
373.15 K, 40000 kPa, Falling or rolling sphere viscometry | – | 0.3746 | – | 0.4771 | – | 0.6239 | 0.7998 | –
373.15 K, 60000 kPa, Falling or rolling sphere viscometry | – | 0.3833 | – | 0.4923 | – | 0.6493 | 0.8409 | –
373.15 K, 80000 kPa, Falling or rolling sphere viscometry | – | 0.3916 | – | 0.5073 | – | 0.6735 | 0.8827 | –
373.15 K, 100000 kPa, Falling or rolling sphere viscometry | – | 0.3984 | – | 0.5213 | – | 0.6978 | 0.9306 | –
393.15 K, 5000 kPa, Falling or rolling sphere viscometry | – | 0.2917 | – | 0.3533 | – | 0.4325 | 0.5209 | –
393.15 K, 10000 kPa, Falling or rolling sphere viscometry | – | 0.2952 | – | 0.3557 | – | 0.4367 | 0.5259 | –
393.15 K, 15000 kPa, Falling or rolling sphere viscometry | – | 0.2973 | – | 0.3585 | – | 0.4425 | 0.5368 | –
393.15 K, 20000 kPa, Falling or rolling sphere viscometry | – | 0.2998 | – | 0.3624 | – | 0.4483 | 0.5458 | –
393.15 K, 25000 kPa, Falling or rolling sphere viscometry | – | 0.3019 | – | 0.366 | – | 0.4536 | 0.5538 | –
393.15 K, 30000 kPa, Falling or rolling sphere viscometry | – | 0.3036 | – | 0.3687 | – | 0.4597 | 0.5613 | –
393.15 K, 40000 kPa, Falling or rolling sphere viscometry | – | 0.3078 | – | 0.3736 | – | 0.4697 | 0.578 | –
393.15 K, 60000 kPa, Falling or rolling sphere viscometry | – | 0.3147 | – | 0.3862 | – | 0.489 | 0.6086 | –
393.15 K, 80000 kPa, Falling or rolling sphere viscometry | – | 0.322 | – | 0.3985 | – | 0.5076 | 0.6407 | –
393.15 K, 100000 kPa, Falling or rolling sphere viscometry | – | 0.3308 | – | 0.4097 | – | 0.5265 | 0.6716 | –
